# Source: US9695155B2, “Herbicidal substituted pyrimidinyloxy benzene compounds” (E. I. DU PONT DE NEMOURS AND COMPANY, priority 2013, dated 2017)
# Experiments:
# deadnettle = experiment: Test D preemergence; format: in vivo, Lamium amplexicaule; details: Lamium amplexicaule, pre-emergence, scale 0-100, read-out: Plant response rating, Deadnettle
# Text: (§1) Seeds of plant species selected from bluegrass (annual bluegrass, Poa annua), blackgrass (Alopecurus myosuroides), canarygrass (littleseed canarygrass, Phalaris minor), chickweed (common chickweed, Stellaria media), galium (catchweed bedstraw, Galium aparine), bromegrass, downy (downy bromegrass, Bromus tectorum), field poppy (Papaver rhoeas), field violet (Viola arvensis), green foxtail (Setaria viridis), deadnettle (henbit deadnettle, Lamium amplexicaule), Italian ryegrass (Lolium multiflorum), kochia (Kochia scoparia), lambsquarters (Chenopodium album), oilseed rape (Brassica napus), pigweed (Amaranthus retroflexus), chamomile (scentless chamomile, Matricaria inodora), Russian thistle (Salsola kali), speedwell (bird's-eye speedwell, Veronica persica), spring barley (Hordeum vulgare), spring wheat (Triticum aestivum), wild buckwheat (Polygonum convolvulus), wild mustard (Sinapis arvensis), wild oat (Avena fatua), wild radish (Raphanus raphanistrum), windgrass (Apera spica-venti), winter barley (Hordeum vulgare), and winter wheat (Triticum aestivum) were planted into a silt loam soil and treated preemergence with test chemicals formulated in a non-phytotoxic solvent mixture which included a surfactant.
# (§2) At the same time, these species were planted in pots containing Redi-Earth® planting medium (Scotts Company, 14111 Scottslawn Road, Marysville, Ohio 43041) comprising spaghnum peat moss, vermiculite, wetting agent and starter nutrients and treated with postemergence applications of the test chemicals formulated in the same manner. Plants ranged in height from 2 to 18 cm (1- to 4-leaf stage). Treated plants and controls were maintained in a controlled growth environment for 7 to 21 days after which time all species were compared to controls and visually evaluated. Plant response ratings, summarized in Table D, are based on a scale of 0 to 100 where 0 is no effect and 100 is complete control. A dash (-) response means no test result.
# wild buckwheat = experiment: Test D preemergence; format: in vivo, Polygonum convolvulus; details: Fallopia convolvulus, pre-emergence, scale 0-100, read-out: Plant response rating, Buckwheat, Wild
# Text: as §1, §2
# galium = experiment: Test D postemergence; format: in vivo, Galium aparine; details: Galium, post-emergence, scale 0 to 100 (0 no effect, 100 complete control), read-out: Plant response rating, Galium
# Text: as §1, §2
# chickweed = experiment: Test D preemergence; format: in vivo, Stellaria media; details: Stellaria media, pre-emergence, scale 0-100, read-out: Plant response rating, Chickweed
# Text: as §1, §2
# winter barley = experiment: Test D preemergence; format: in vivo, Hordeum vulgare; details: Hordeum vulgare, pre-emergence, scale 0-100, read-out: Plant response rating, Barley, Winter
# Text: as §1, §2
# spring barley = experiment: Test D preemergence; format: in vivo, Hordeum vulgare; details: Hordeum vulgare, pre-emergence, scale 0-100, read-out: Plant response rating, Barley, Spring
# Text: as §1, §2
# field poppy = experiment: Test D preemergence; format: in vivo, Papaver rhoeas; details: Papaver rhoeas, pre-emergence, scale 0-100, read-out: Plant response rating, Field Poppy
# Text: as §1, §2
compound,measurement,setting,value
"N#Cc1cccc(Oc2ncc(Cl)cn2)c1-n1cc(Br)cn1 [Compound 52, 2-(4-bromo-1H-pyrazol-1-yl)-3-[(5-chloro-2-pyrimidinyl)oxy]benzonitrile]",pest or weed control at 31 g/ha,deadnettle; 31 g ai/ha,70%
same,pest or weed control at 62 g/ha,deadnettle; 62 g ai/ha,75%
same,pest or weed control at 125 g/ha,deadnettle; 125 g ai/ha,100%
same,pest or weed control at 250 g/ha,deadnettle; 250 g ai/ha,100%
same,pest or weed control at 31 g/ha,wild buckwheat; 31 g ai/ha,10%
same,pest or weed control at 62 g/ha,wild buckwheat; 62 g ai/ha,50%
same,pest or weed control at 125 g/ha,wild buckwheat; 125 g ai/ha,100%
same,pest or weed control at 250 g/ha,wild buckwheat; 250 g ai/ha,100%
same,pest or weed control at 31 g/ha,galium; 31 g ai/ha,70%
same,pest or weed control at 62 g/ha,galium; 62 g ai/ha,80%
same,pest or weed control at 125 g/ha,galium; 125 g ai/ha,95%
same,pest or weed control at 250 g/ha,galium; 250 g ai/ha,100%
same,pest or weed control at 31 g/ha,chickweed; 31 g ai/ha,100%
same,pest or weed control at 62 g/ha,chickweed; 62 g ai/ha,100%
same,pest or weed control at 125 g/ha,chickweed; 125 g ai/ha,100%
same,pest or weed control at 250 g/ha,chickweed; 250 g ai/ha,100%
same,plant injury at 31 g/ha,winter barley; 31 g ai/ha,0%
same,plant injury at 62 g/ha,winter barley; 62 g ai/ha,0%
same,plant injury at 125 g/ha,winter barley; 125 g ai/ha,5%
same,plant injury at 250 g/ha,winter barley; 250 g ai/ha,35%
same,plant injury at 31 g/ha,spring barley; 31 g ai/ha,5%
same,plant injury at 62 g/ha,spring barley; 62 g ai/ha,10%
same,plant injury at 125 g/ha,spring barley; 125 g ai/ha,10%
same,plant injury at 250 g/ha,spring barley; 250 g ai/ha,50%
same,pest or weed control at 31 g/ha,field poppy; 31 g ai/ha,95%
same,pest or weed control at 62 g/ha,field poppy; 62 g ai/ha,80%
same,pest or weed control at 125 g/ha,field poppy; 125 g ai/ha,90%
same,pest or weed control at 250 g/ha,field poppy; 250 g ai/ha,100%
